According to patent US7667100B2, “Nucleic acid compositions conferring herbicide resistance” (Dow AgroSciences LLC, priority 2002, dated 2010):

Tested on: Arabidopsis thaliana
Assay: Auxin tolerance testing of stably transformed Arabidopsis thaliana
Type: in vivo
Conditions: 50 μL of 3.75 g ae/ha solution on one lower leaf, within five days
Text: One of the auxin tolerance sequences, 129965 (SEQ ID NO:10), was selected for stable expression analysis using a model plant system, Arabidopsis thaliana. This required cloning of the GENEWARE® vector insert into a binary vector suitable for Agrobacterium transformation. Agrobacteriuni encoding the gene of interest as well as a selectable marker was then utilized to transform Arabidopsis plants. Transgenic plants derived from the first generation of seed (T1) were selected based on glufosinate resistance and subsequently tested for tolerance to auxin 4-amino-3,6-dichloropyridine-2-carboxylic acid.
Plant growth and maintenance. Freshly harvested Arabidopsis thaliana (Columbia ecotype) seed was allowed to dry at least 7 days at room temperature in the presence of desiccant. Dried seed was sterilized with a 0.1% Triton X-100 (Sigma Chemical Co., St. Louis, Mo.) and 70% ethanol solution (3 min) using 95% ethanol as a wash (30 sec). After sterilization, seed was suspended in a 0.1% agarose (Sigma Chemical Co., St. Louis, Mo.) solution. The suspended seed was stored at 4° C. for 2 days to complete dormancy requirements and ensure synchronous seed germination (stratification).
Sunshine Mix LP5 (Sun Gro Horticulture Inc., Bellevue, Wash.) was covered with fine vermiculite and subirrigated with Hoagland's solution (see Example 9) until wet. The soil mix was allowed to drain for 24 hours. […]

Nc1cc(Cl)nc(C(=O)O)c1Cl [4-amino-3,6-dichloropyridine-2-carboxylic acid, reference compound]
auxin symptoms in wild type plants: systemic symptoms of epinasty and leaf cupping, as well as meristem swelling and significant chlorosis
